In US7365080B2, “Pharmaceutical compositions comprising thieno[2,3-c]pyridine derivatives and use thereof” (Rimonyx Pharmaceuticals Ltd., priority 2003, dated 2008):

Legend:
L-Selectin = molecular target: T1, L-Selectin (Homo sapiens, UniProt P14151); assay: ELISA: inhibition of L-selectin/IgG binding to immobilized heparin (Heparin-BSA); conditions: L-Selectin binding to heparin
T1 construct: purchased Research and Development Systems 728-LS
T1 sequence (P14151 39-332 limits assumed): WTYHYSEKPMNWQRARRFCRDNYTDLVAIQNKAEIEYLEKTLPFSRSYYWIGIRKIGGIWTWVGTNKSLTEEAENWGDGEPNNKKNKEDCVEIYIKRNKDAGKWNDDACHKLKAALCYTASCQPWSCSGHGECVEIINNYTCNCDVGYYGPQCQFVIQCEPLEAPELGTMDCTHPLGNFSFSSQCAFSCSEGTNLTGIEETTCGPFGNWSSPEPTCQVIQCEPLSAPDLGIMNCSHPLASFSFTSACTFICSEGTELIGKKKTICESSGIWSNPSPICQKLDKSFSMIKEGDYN
Protocol: The inhibitory effect of the compounds of the present invention can be evaluated by several methods in vitro. One assay for measuring GAG-ECAM binding, exemplified herein below, detects the binding of L selectin/IgG to immobilized heparin. Another assay utilizes immobilized L-selectin, or L-selectin fused to protein domains other than IgG. The amount of bound L-selectin is determined by an ELISA assay using, for example, a monoclonal antibody raised against L-selectin, which is conjugated to horseradish peroxidase. […] The Dregg-55 antibody was also shown to inhibit L-selectin-dependent adhesion in vitro, neutrophil accumulation in vitro and inflammation in vivo (Co M. S. et al, Immunotechnology 493: 253-266, 1999).
An in vitro assay was used to assess the ability of test compounds according to formula I to inhibit the interactions of L-selectin with HS-GAGs. The assay was suitable for determining the concentration required for 50% inhibition (IC-50) for each specific compound. In the assay, the GAG used was heparin. Thus, porcine intestinal mucosa heparin conjugated to Bovine Serum Albumin (Heparin-BSA; Sigma Cat. No. H0403) at […] in Phosphate Buffered Saline (PBS; pH 6.5) was added to a 96 well polystyrene ELISA plate (NUNC Cat. No. 442404; 0.1 ml per well) and incubated Over Night (ON) at 4° C. Following the incubation, the plate was washed thoroughly, by immersion, with de-ionized water and PBS (pH 6.5). The ELISA plate was then blocked with BSA (ICN Cat. No.160069, 3%, 200 μl per well) for 1 hour at Room Temperature (RT). Following blocking, the plate was washed with de-ionized water, and then with PBS (pH 6.5) containing Tween 20 (Sigma Cat. No. P-1379, 0.05%). Compounds were synthesized or purchased from ChemDiv Labs (San Diego, Calif.), dissolved in DMSO, diluted in PBS and added to the wells at various concentrations in the range of 0.01 to 300 μM. Recombinant Human L-Selectin/IgG (Research and Development Systems Cat. No.728-LS) dissolved in PBS supplemented with BSA (0.1%) and calcium chloride (1 mM) was added to the ELISA plate (100 μl per well) and incubated for 60 minutes at RT with shaking. Following incubation, the plate was washed with de-ionized water and three times with PBS (pH 6.5) containing Tween 20. Anti-Human IgG Peroxidase Conjugate (1:5000; Sigma Product No. A8667) diluted in PBS supplemented with BSA (0.1%) and calcium chloride (1 mM) was added to the ELISA plate (100 μl per well) and incubated for 30 minutes at RT with shaking. The plate was then washed with de-ionized water and three times with PBS (pH 6.5) containing Tween 20. The peroxidase substrate cromogen, TMB (Dako Cat. No. S1599) was added (100 μl per well) to the ELISA plate and incubated at room temperature. After 15 minutes ELISA Stop Solution (hydrochloric acid 1N, sulfuric acid 3N) was added (200 μl per well) to stop the peroxidase catalyzed colorimetric reaction. The Optical Density (OD) of the samples was measured at 450 nm using an ELISA plate reader (Dynatech MR5000). Data were analyzed with Graphpad Prism software and IC-50 values were established. The P-selectin assay was carried out in a similar fashion, except that Recombinant Human P-Selectin/IgG (Research and Development Systems Cat.No.137-PS) was used.

[1] = system: Human T-lymphocytes on human endothelial cells; assay: T-lymphocyte rolling on endothelial cells under shear flow; format: cell-based
Protocol: Human T-lymphocytes were passed over a layer of human endothelial cells according to the method of Lawrence and Springer (Cell 65: 859-873, 1991). At high shear flow, migrating T-lymphocytes adhered transiently and intermittently to the endothelial cells as a consequence of HS-GAG-ECAM interaction. The resulting T-cell rolling was recorded by video camera and the number of rolling cells per defined area during a constant period of time was determined. Soluble heparin (competitor of cell surface GAGs) abolished T-cell rolling under high shear flow conditions. Compounds no. 1, 11 and 25, each at 25 μM, inhibited cell rolling by 90, 90 and 70%, respectively.

| Compound | inhibition at 50 µM (L-Selectin) [%] | also measured |
| --- | --- | --- |
| CCN(CC)S(=O)(=O)c1ccc(C(=O)Nc2sc3c(c2-c2nc4ccccc4s2)CCN(C(C)C)C3)cc1 [Compound 3] |  | IC50 (L-Selectin): 10 µM |
| CCN1CCc2c(sc(NC(=O)c3ccc(S(=O)(=O)N4CCCCCC4)cc3)c2-c2nc3ccccc3s2)C1 [Compound 8] | 46 |  |
| CN1CCc2c(sc(NC(=O)c3ccc(S(=O)(=O)N4CCOCC4)cc3)c2-c2nc3ccccc3s2)C1 [Compound 9] | 52 |  |
| CC(C)N1CCc2c(sc(NC(=O)c3ccc(S(=O)(=O)N4CCOCC4)cc3)c2-c2nc3ccccc3s2)C1 [Compound 10] |  | IC50 (L-Selectin): 25 µM |
| CC(C)N1CCc2c(sc(NC(=O)c3ccc(S(=O)(=O)N(C)c4ccccc4)cc3)c2C(N)=O)C1 [Compound 13] | 68 |  |
| CC1CC(C)CN(S(=O)(=O)c2ccc(C(=O)Nc3sc4c(c3C(N)=O)CCN(C(C)C)C4)cc2)C1 (stereo not shown) [Compound 14] | 35 |  |
| CCOC(=O)c1c(NC(=O)c2ccc(S(=O)(=O)N3CCCc4ccccc43)cc2)sc2c1CCN(C(C)C)C2 [Compound 16] |  | IC50 (L-Selectin): 11 µM |
| CCOC(=O)c1c(NC(=O)c2ccc(S(=O)(=O)N3CCN(C(=O)OCC)CC3)cc2)sc2c1CCN(C(C)C)C2 [Compound 17] | 21 |  |
| CCOC(=O)c1c(NC(=O)c2ccc(S(=O)(=O)N3CCCCCC3)cc2)sc2c1CC(C)(C)NC2(C)C [Compound 18] |  | IC50 (L-Selectin): 11 µM |
| C=CCN(CC=C)S(=O)(=O)c1ccc(C(=O)Nc2sc3c(c2C(=O)OC)CC(C)(C)NC3(C)C)cc1 [Compound 19] |  | IC50 (L-Selectin): 43 µM |
| CCOC(=O)c1c(NC(=O)c2ccc(S(=O)(=O)N(CC)CC)cc2)sc2c1CC(C)(C)NC2(C)C [Compound 20] |  | IC50 (L-Selectin): 26 µM |
| CN(C1CCCCC1)S(=O)(=O)c1ccc(C(=O)Nc2sc3c(c2C(N)=O)CC(C)(C)NC3(C)C)cc1 [Compound 21] |  | IC50 (L-Selectin): 36 µM |
| CCN(CC)S(=O)(=O)c1ccc(C(=O)Nc2sc3c(c2C(N)=O)CC(C)(C)NC3(C)C)cc1 [Compound 22] | 35 |  |
| CCCCN(C)S(=O)(=O)c1ccc(C(=O)Nc2sc3c(c2C(N)=O)CC(C)(C)NC3(C)C)cc1 [Compound 23] | 39 |  |
| CCOC(=O)N1CCN(S(=O)(=O)c2ccc(C(=O)Nc3sc4c(c3C(N)=O)CC(C)(C)NC4(C)C)cc2)CC1 [Compound 24] | 29 |  |
| CC1(C)Cc2c(sc(NC(=O)c3ccc(S(=O)(=O)N4CCCc5ccccc54)cc3)c2C(N)=O)C(C)(C)N1 [Compound 25] |  | IC50 (L-Selectin): 12 µM; inhibition at 25 µM ([1]; Homo sapiens, 25 μM, high shear flow, read-out: inhibition of cell rolling): 70%; % rolling ([1]; test compound (25 μM), shear flow): <10% |
| COCCN(CCOC)S(=O)(=O)c1ccc(C(=O)Nc2sc3c(c2C(N)=O)CC(C)(C)NC3(C)C)cc1 [Compound 26] | 23 |  |
| CCN1CCc2c(sc(NC(=O)c3ccc(S(=O)(=O)N(C)c4ccccc4)cc3)c2C(=O)NC)C1 [Compound 27] |  | IC50 (L-Selectin): 9 µM |
| CCN1CCc2c(sc(NC(=O)c3ccc(S(=O)(=O)N(CC)Cc4ccccc4)cc3)c2C(N)=O)C1 [Compound 28, 2-[[4-[[ethyl(phenylmethyl)amino]sulfonyl]benzoyl]amino]-6-ethyl-4,5,6,7-tetrahydrothieno[2,3-c]pyridine-3-carboxamide] | 63 |  |
| CCN1CCc2c(sc(NC(=O)c3ccc(S(=O)(=O)N4CCN(C)CC4)cc3)c2C(N)=O)C1 [Compound 29, 2-[[4-[(4-methyl-1-piperazinyl)sulfonyl]benzoyl]amino]-6-ethyl-4,5,6,7-tetrahydrothieno[2,3-c]pyridine-3-carboxamide] | 30 |  |

The next lines start with results.

| inhibition at 50 µM (L-Selectin) [%] | Compound | also measured |
| --- | --- | --- |
| 60 | CCN(CC)S(=O)(=O)c1ccc(C(=O)Nc2sc3c(c2-c2nc4ccccc4s2)CCN(C)C3)cc1 [Compound 2] |  |
| 43 | COCCN(CCOC)S(=O)(=O)c1ccc(C(=O)Nc2sc3c(c2-c2nc4ccccc4s2)CCN(C)C3)cc1 [Compound 4] |  |
| 44 | CN1CCc2c(sc(NC(=O)c3ccc(S(=O)(=O)N(C)c4ccccc4)cc3)c2-c2nc3ccccc3s2)C1 [Compound 6] |  |
| 55 | CCCCN(CC)S(=O)(=O)c1ccc(C(=O)Nc2sc3c(c2C(N)=O)CCN(C(C)C)C3)cc1 [Compound 12] |  |
| 40 | CCCCN(C)S(=O)(=O)c1ccc(C(=O)Nc2sc3c(c2C(=O)OCC)CCN(C(C)C)C3)cc1 [Compound 15] |  |
| 21 | CCCN(CCC)S(=O)(=O)c1ccc(C(=O)Nc2sc3c(c2-c2nc4ccccc4s2)CCN(C)C3)cc1 [Compound 30] |  |
| 27 | CCCCN(CCCC)S(=O)(=O)c1ccc(C(=O)Nc2sc3c(c2-c2nc4ccccc4s2)CCN(C)C3)cc1 [Compound 31] |  |
| 26 | CCCCN(C)S(=O)(=O)c1ccc(C(=O)Nc2sc3c(c2-c2nc4ccccc4s2)CCN(C)C3)cc1 [Compound 32] |  |
| 21 | CCCCN(CC)S(=O)(=O)c1ccc(C(=O)Nc2sc3c(c2-c2nc4ccccc4s2)CCN(C)C3)cc1 [Compound 33] |  |
| 25 | C=CCN(CC=C)S(=O)(=O)c1ccc(C(=O)Nc2sc3c(c2-c2nc4ccccc4s2)CCN(C)C3)cc1 [Compound 34] |  |
| 24 | CN1CCc2c(sc(NC(=O)c3ccc(S(=O)(=O)N4CCCC4)cc3)c2-c2nc3ccccc3s2)C1 [Compound 35] |  |
| 26 | CN1CCc2c(sc(NC(=O)c3ccc(S(=O)(=O)N4CCCCC4)cc3)c2-c2nc3ccccc3s2)C1 [Compound 36] |  |
| 23 | CC1CCCN(S(=O)(=O)c2ccc(C(=O)Nc3sc4c(c3-c3nc5ccccc5s3)CCN(C)C4)cc2)C1 (stereo not shown) [Compound 37] |  |
| 33 | CC1CCN(S(=O)(=O)c2ccc(C(=O)Nc3sc4c(c3-c3nc5ccccc5s3)CCN(C)C4)cc2)CC1 [Compound 38] |  |
| 24 | CC1CC(C)CN(S(=O)(=O)c2ccc(C(=O)Nc3sc4c(c3-c3nc5ccccc5s3)CCN(C)C4)cc2)C1 (stereo not shown) [Compound 39] |  |
| 25 | CCCN(CCC)S(=O)(=O)c1ccc(C(=O)Nc2sc3c(c2-c2nc4ccccc4s2)CCN(CC)C3)cc1 [Compound 40] |  |
| 25 | C=CCN(CC=C)S(=O)(=O)c1ccc(C(=O)Nc2sc3c(c2-c2nc4ccccc4s2)CCN(CC)C3)cc1 [Compound 41] |  |
| 27 | CCCCN(CC)S(=O)(=O)c1ccc(C(=O)Nc2sc3c(c2-c2nc4ccccc4s2)CCN(C(C)C)C3)cc1 [Compound 42] |  |
| 17 | C=CCN(CC=C)S(=O)(=O)c1ccc(C(=O)Nc2sc3c(c2-c2nc4ccccc4s2)CCN(C(C)C)C3)cc1 [Compound 43] |  |
| 29 | CC(C)N1CCc2c(sc(NC(=O)c3ccc(S(=O)(=O)N4CCCCC4)cc3)c2-c2nc3ccccc3s2)C1 [Compound 44] |  |
| 24 | CC(C)N1CCc2c(sc(NC(=O)c3ccc(S(=O)(=O)N4CCCCC4C)cc3)c2-c2nc3ccccc3s2)C1 (stereo not shown) [Compound 45] |  |
